Measurements from patent US20140155410A1 (GlaxoSmithKline LLC, priority 2008, published 2014).

Tests used:
GST-tagged FAK = target: T1, GST-tagged FAK (Homo sapiens, UniProt Q05397); assay: Biochemical assay for FAK activity, Assay 1: phosphorylation of peptide substrate with radio-labeled ATP; settings: 5 μM ATP, 30 min pre-incubation, read-out: Assay 1 FAK TRF PXC50 (converted)
T1 construct: purchased Invitrogen PV3832
Experimental: GST-tagged (glutathione S-transferase-tagged) FAK was purchased from Invitrogen (PV3832) (www.invitrogen.com). […] To measure inhibitors of FAK, compounds were first prepared as a 10× stock in 10% DMSO. […] A 6-nM GST-FAK solution was prepared in 1.1× reaction buffer containing 44 mM HEPES, pH=7.2, 11 mM MgCl2, 2.2 mM MnCl2, 1.1 mM DTT and 0.011% Tween-20. Then, 20 μL of the 6 nM GST-FAK solution were pre-incubated with the compounds for 30 min at room temperature. […] The reaction was allowed to proceed for 90 min before being quenched with 40 μL of 1% H3PO4. A portion of the reaction mixture (60 μL) was transferred to a phospho-cellulose filter plate (Millipore; www.millipore.com, MAPHNOB50) and incubated for 20 minutes. The plate was filtrated, washed three times using 150 μL of 0.5% H3PO4 and dried at 50° C. for 30 min. After the addition of 60 μL Microscint-20 to the plate, radioactivity was measured using a TopCount (PerkinElmer; www.PerkinElmer.com).

[1] = target: T2, Full length Human FAK (Flag-His-TEV-FAK1) (Homo sapiens, UniProt Q05397); assay: Biochemical assay for FAK activity, Assay 2: LANCE Ultra ULight peptide phosphorylation, 665 nm/615 nm ratio; settings: Flag-His-TEV-FAK1, 10 μM ATP, 30 min pre-incubation; read-out: Assay 2 FAK H 31284A TRF PXC50 (converted)
T2 construct: Full length Human FAK was expressed using baculovirus in Sf9 cells; made in house; host or cells: baculovirus in Sf9 cells
T2 sequence (Q05397 whole entry): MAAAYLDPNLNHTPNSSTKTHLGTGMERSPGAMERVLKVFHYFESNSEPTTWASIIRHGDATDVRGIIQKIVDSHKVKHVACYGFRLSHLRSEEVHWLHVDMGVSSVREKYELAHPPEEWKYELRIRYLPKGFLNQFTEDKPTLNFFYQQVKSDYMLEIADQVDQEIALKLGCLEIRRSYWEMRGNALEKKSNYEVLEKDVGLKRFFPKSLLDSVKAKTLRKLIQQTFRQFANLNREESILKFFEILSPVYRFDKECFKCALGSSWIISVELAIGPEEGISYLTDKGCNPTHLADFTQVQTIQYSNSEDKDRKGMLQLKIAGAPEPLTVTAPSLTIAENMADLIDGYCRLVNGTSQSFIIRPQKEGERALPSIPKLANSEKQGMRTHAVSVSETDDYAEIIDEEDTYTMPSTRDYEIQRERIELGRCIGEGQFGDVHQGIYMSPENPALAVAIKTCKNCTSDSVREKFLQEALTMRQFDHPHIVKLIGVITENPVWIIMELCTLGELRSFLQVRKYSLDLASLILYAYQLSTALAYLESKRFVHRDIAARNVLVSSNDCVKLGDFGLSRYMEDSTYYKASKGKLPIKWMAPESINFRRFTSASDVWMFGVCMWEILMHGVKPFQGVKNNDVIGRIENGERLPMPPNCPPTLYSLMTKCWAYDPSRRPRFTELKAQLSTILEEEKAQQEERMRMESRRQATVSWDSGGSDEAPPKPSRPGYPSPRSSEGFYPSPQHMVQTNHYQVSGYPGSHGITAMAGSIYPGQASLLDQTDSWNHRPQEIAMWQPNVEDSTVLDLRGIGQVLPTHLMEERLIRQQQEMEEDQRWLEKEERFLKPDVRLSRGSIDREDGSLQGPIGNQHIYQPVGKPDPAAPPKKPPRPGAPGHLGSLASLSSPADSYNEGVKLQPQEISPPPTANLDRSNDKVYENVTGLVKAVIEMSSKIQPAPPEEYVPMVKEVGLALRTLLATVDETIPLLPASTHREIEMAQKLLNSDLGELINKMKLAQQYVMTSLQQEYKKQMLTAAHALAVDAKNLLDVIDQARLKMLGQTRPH

T1 sequence (Q05397 whole entry): as above

| Structure (SMILES) | IC50 (GST-tagged FAK) [nM] | IC50 [1] [nM] |
| --- | --- | --- |
| CCOC(=O)c1cc(Nc2cc(Nc3ccccc3C(=O)NC)c(Cl)cn2)n(CC)n1 [Example 17, Ethyl 5-{[5-chloro-4-({2-[(methylamino)carbonyl]phenyl}amino)-2-pyridinyl]amino}-1-ethyl-1H-pyrazole-3-carboxylate] | 1.26 | 39.8 |
| CONC(=O)c1ccccc1Nc1cc(Nc2cc(C)nn2C(C)C)ncc1Cl [Example 41, 2-[(5-Chloro-2-{[3-methyl-1-(1-methylethyl)-1H-pyrazol-5-yl]amino}-4-pyridinyl)amino]-N-(methyloxy)benzamide] | 0.398 | 2 |
| CNC(=O)c1ccccc1Nc1cc(Nc2cc(C)nn2C(C)C)ncc1Cl [Example 4, 2-[(5-Chloro-2-{[3-methyl-1-(1-methylethyl)-1H-pyrazol-5-yl]amino}-4-pyridinyl)amino]-N-methylbenzamide] | 1 | 6.31 |
| CCn1nccc1Nc1cc(Nc2ccc(Cl)cc2C(=O)NC)c(Cl)cn1 [Example 12, 5-Chloro-2-({5-chloro-2-[(1-ethyl-1H-pyrazol-5-yl)amino]-4-pyridinyl}amino)-N-methylbenzamide] | 2.51 | 5.01 |
| CCn1nc(CO)cc1Nc1cc(Nc2ccccc2C(=O)NC)c(Cl)cn1 [Example 15, 2-[(5-Chloro-2-{[1-ethyl-3-(hydroxymethyl)-1H-pyrazol-5-yl]amino}-4-pyridinyl)amino]-N-methylbenzamide] | 2.51 | 20 |
| CCNC(=O)c1ccccc1Nc1cc(Nc2cc(C)nn2CC)ncc1Cl [Example 42, 2-({5-Chloro-2-[(1-ethyl-3-methyl-1H-pyrazol-5-yl)amino]-4-pyridinyl}amino)-N-ethylbenzamide] | 12.6 | 50.1 |
| CNC(=O)c1ccccc1Nc1cc(Nc2cc(C)nn2CCO)ncc1Cl [Example 16, 2-[(5-Chloro-2-{[1-(2-hydroxyethyl)-3-methyl-1H-pyrazol-5-yl]amino}-4-pyridinyl)amino]-N-methylbenzamide] | 1.26 | 20 |
| CONC(=O)c1ccccc1Nc1cc(Nc2cc(C)nn2C)ncc1Cl [Example 36, 2-({5-Chloro-2-[(1,3-dimethyl-1H-pyrazol-5-yl)amino]-4-pyridinyl}amino)-N-(methyloxy)benzamide] | 0.398 | 1.58 |
| CCn1nc(C(=O)NC)cc1Nc1cc(Nc2ccccc2C(=O)NC)c(Cl)cn1 [Example 20, 5-{[5-Chloro-4-({2-[(methylamino)carbonyl]phenyl}amino)-2-pyridinyl]amino}-1-ethyl-N-methyl-1H-pyrazole-3-carboxamide] | 10 | 39.8 |
| CNC(=O)c1ccccc1Nc1cc(Nc2cc(C)nn2C)ncc1C(F)(F)F [Example 28, 2-{[2-[(1,3-Dimethyl-1H-pyrazol-5-yl)amino]-5-(trifluoromethyl)-4-pyridinyl]amino}-N-methylbenzamide] | 0.398 | 2.51 |
| CCn1nc(C)cc1Nc1cc(Nc2ccccc2C(=O)NOC)c(Cl)cn1 [Example 39, 2-({5-Chloro-2-[(1-ethyl-3-methyl-1H-pyrazol-5-yl)amino]-4-pyridinyl}amino)-N-(methyloxy)benzamide] | 0.398 | 5.01 |
| CNC(=O)c1ccccc1Nc1cc(Nc2cc(C)nn2CC(F)(F)F)ncc1Cl [Example 21, 2-[(5-Chloro-2-{[3-methyl-1-(2,2,2-trifluoroethyl)-1H-pyrazol-5-yl]amino}-4-pyridinyl)amino]-N-methylbenzamide] | 3.16 | 63.1 |
| CNC(=O)c1ccccc1Nc1cc(Nc2cc(C)nn2C(C)C)ncc1C(F)(F)F [Example 30, N-Methyl-2-{[2-[(3-methyl-1-(1-methylethyl)-1H-pyrazol-5-yl]amino}-5-(trifluoromethyl)-4-pyridinyl]amino}benzamide] | 0.398 | 1.58 |
| Cc1cc(Nc2cc(Nc3ccccc3C(=O)NOCCN(C)C)c(Cl)cn2)n(C)n1 [Example 38, 2-({5-Chloro-2-[(1,3-dimethyl-1H-pyrazol-5-yl)amino]-4-pyridinyl}amino)-N-{[2-(dimethylamino)ethyl]oxy}benzamide] | 251 | 1000 |
| CNC(=O)c1ccccc1Nc1cc(Nc2cnn(C)c2C)ncc1Cl [Example 59, 2-({5-Chloro-2-[(1,5-dimethyl-1H-pyrazol-4-yl)amino]-4-pyridinyl}amino)-N-methylbenzamide] | 0.631 | 5.01 |
| CNC(=O)c1ccccc1Nc1cc(Nc2cn(C)nc2C)ncc1Cl [Example 26, 2-({5-Chloro-2-[(1,3-dimethyl-1H-pyrazol-4-yl)amino]-4-pyridinyl}amino)-N-methylbenzamide] | 0.398 | 3.98 |
| CNC(=O)c1ccccc1Nc1cc(Nc2cc(C(C)(C)C)nn2C)ncc1Cl [Example 14, 2-[(5-Chloro-2-{[3-(1,1-dimethylethyl)-1-methyl-1H-pyrazol-5-yl)amino]-4-pyridinyl}amino]-N-methylbenzamide] | 2.51 | 20 |
| CCn1nccc1Nc1cc(Nc2ccccc2C(=O)NOC)c(Cl)cn1 [Example 40, 2-({5-Chloro-2-[(1-ethyl-1H-pyrazol-5-yl)amino]-4-pyridinyl}amino)-N-(methyloxy)benzamide] | 1.26 | 2.51 |
